In patent US9738613B2, “Substituted 1,2,3-triazoles as antitumor agents” (National Central University, priority 2015, dated 2017) one finds IC50 data, which are given here for twelve compounds.

As usually defined, the IC50 is the concentration that gives 50% inhibition.

One experiment deals with PC-3 cells. Briefly: Sulforhodamine B (SRB) growth inhibition assay, PC-3 cells. Type of experiment: cell-based, Human. The method, then:
(§1) Human hormone-refractory prostate cancer cell lines PC-3 and DU-145 were from American Type Culture Collection (Rockville, MD). Cells were cultured in RPMI 1640 medium with 10% FBS (v/v) and penicillin (100 U/ml)/streptomycin (100 μg/ml). Cultures were maintained in a humidified incubator at 37° C. in 5% CO2/95% air.
(§2) Cells were seeded in 96-well plates in medium with 5% FBS. After 24 hours, cells were fixed with 10% TCA to represent cell population at the time of drug addition (T0). After additional incubation of DMSO or the compound for 48 hours (PC-3 cells) or 72 hours (DU145 cells), cells were fixed with 10% TCA and SRB at 0.4% (w/v) in 1% acetic acid was added to stain cells. Unbound SRB was washed out by 1% acetic acid and SRB bound cells were solubilized with 10 mM Trizma base. The absorbance was read at a wavelength of 515 nm. Using the following absorbance measurements, such as time zero (T0), control growth (C), and cell growth in the presence of the compound (Tx), the percentage growth was calculated at each of the compound concentrations levels. Percentage growth inhibition was calculated as: [1−(Tx−T0)/(C−T0)]×100%. Growth inhibition of 50% (IC50) is determined at the compound concentration which results in 50% reduction of total protein increase in control cells during the compound incubation. Data are expressed as mean±SEM of three to five determinations.

The test system of the next experiment is DU-145 cells. Briefly: Sulforhodamine B (SRB) growth inhibition assay, DU-145 cells. Type of experiment: cell-based, Human. The protocol:
as §1, §2

Where [1] appears, read: Homo sapiens, PC-3 cells, 48 hours, bound stated, read-out: IC50 in PC-3 cells (text summary of Table 1).
Setting [2] is: human hormone-refractory prostate cancer PC-3 cells, 48 hours incubation, read-out: PC-3 cells IC50.
[3] abbreviates: Homo sapiens, DU-145 cells, 72 hours, bound stated, read-out: IC50 in DU-145 cells (text summary of Table 1).
Setting [4] is: human hormone-refractory prostate cancer DU-145 cells, 72 hours incubation, read-out: DU-145 cells IC50.

Structures can show the parent of a compound that is named as a salt. Where two headings read alike, the source gives them in different places.

For the compound `CCCCCCCCCCCCCCCCn1cc(CCC(N)(CO)CO)nn1` [Compound 6, 2-Amino-2-(2-(1-hexadecyl-1H-1,2,3-triazol-4-yl)ethyl)propane-1,3-diol hydrochloride], the IC50 with PC-3 cells (setting [1]) was below 10 µM; in the experiment with PC-3 cells (setting [2]), 6.2 µM.

`CCCCCCCCCCCCCCCCCCn1cc(CC(N)(CO)CO)nn1` [Compound 3, 2-Amino-2-((1-octadecyl-1H-1,2,3-triazol-4-yl)methyl)propane-1,3-diol hydrochloride]: the IC50 in the experiment on DU-145 cells (setting [3]) is below 10 µM; with DU-145 cells (setting [4]) it was 5.7 µM; with PC-3 cells (setting [1]) it was below 5 µM; in the experiment with PC-3 cells (setting [2]) it was 4.5 µM.

Turning to `CCCCCCCCCCCCCCCCCCCCn1cc(CC(CO)(COC)NC)nn1` (stereo not shown) [Compound 12, 3-(1-Icosyl-1H-1,2,3-triazol-4-yl)-2-(methoxymethyl)-2-(methylamino)propan-1-ol], the IC50 with DU-145 cells (setting [3]) is below 5 µM; with DU-145 cells (setting [4]), 4.68 µM; in the experiment with PC-3 cells (setting [1]), below 5 µM; with PC-3 cells (setting [2]), 2.99 µM.

As for `CCCCCCCCCCCCCCCCCCCCn1cc(CC(N)(CO)CO)nn1` [Compound 8, 2-Amino-2-((1-icosyl-1H-1,2,3-triazol-4-yl)methyl)propane-1,3-diol hydrochloride], the IC50 in the experiment with DU-145 cells (setting [3]) was below 10 µM; in the experiment with DU-145 cells (setting [4]), 6.2 µM; with PC-3 cells (setting [1]) it was below 5 µM; in the experiment on PC-3 cells (setting [2]) it was 3.8 µM.

Consider “2-Amino-2-((1-pentadecyl-1H-1,2,3-triazol-4-yOmethyl)propane-1,3-diol hydrochloride [Compound 5]”, for which, in the experiment on PC-3 cells (setting [2]), the IC50 was 3.5 µM.

For the compound “2-Amino-2-(4-(1-tetradecyl-1H-1,2,3-triazol-4-yl)butyl)propane-1,3-diol hydrochloride [Compound 10]”, the IC50 in the experiment with DU-145 cells (setting [4]) is 6.2 µM; with PC-3 cells (setting [2]), 8.97 µM.

For the compound `CCCCCCCCCCCCCn1cc(CC(N)(CO)CO)nn1` [Compound 11, 2-Amino-2-((1-tridecyl-1H-1,2,3-triazol-4-yl)methyl)propane-1,3-diol hydrochloride], the IC50 with DU-145 cells (setting [3]) was below 5 µM; in the experiment with DU-145 cells (setting [4]), 4.2 µM; with PC-3 cells (setting [1]), below 10 µM; in the experiment with PC-3 cells (setting [2]), 5.31 µM.

As for `CCCCCCCCCCCCCCn1cc(CCCC(N)(CO)CO)nn1` [Compound 9, 2-Amino-2-(3-(1-tetradecyl-1H-1,2,3-triazol-4-yl)propyl)propane-1,3-diol hydrochloride], the IC50 with DU-145 cells (setting [3]) was below 10 µM; with DU-145 cells (setting [4]) it was 5.4 µM; with PC-3 cells (setting [1]), below 5 µM; in the experiment on PC-3 cells (setting [2]), 4.2 µM.

For `CCCCCCCCCCCCCCn1cc(CC(N)(CO)CO)nn1` [Compound 1, 2-Amino-2-((1-tetradecyl-1H-1,2 ,3-triazol-4-yl)methyl)propane-1,3-diol hydrochloride], the IC50 in the experiment on DU-145 cells (setting [3]) was below 5 µM; in the experiment with DU-145 cells (setting [4]), 4.7 µM; with PC-3 cells (setting [1]), below 5 µM; in the experiment on PC-3 cells (setting [2]) it was 4.9 µM.

In the case of `CCCCCCCCCCCCCCCCn1cc(CC(N)(CO)CO)nn1` [Compound 2, 2-Amino-2-((1-hexadecyl-1H-1,2,3-triazol-4-yl)methyl)propane-1,3-diol hydrochloride], the 50% inhibitory concentration (IC50) is below 10 µM with DU-145 cells (setting [3]), 5.3 µM in the experiment on DU-145 cells (setting [4]), below 5 µM in the experiment with PC-3 cells (setting [1]) and 3.3 µM in the experiment with PC-3 cells (setting [2]).

Regarding `CCCCCCCCCCCCCCCCCCn1cc(CCC(N)(CO)CO)nn1` [Compound 4, 2-Amino-2-(2-(1-octadecyl-1H-1,2,3-triazol-4-yl)ethyl)propane-1,3-diol hydrochloride], the IC50 in the experiment on DU-145 cells (setting [3]) was below 5 µM; in the experiment with DU-145 cells (setting [4]) it was 2.4 µM; in the experiment on PC-3 cells (setting [1]) it was below 5 µM; with PC-3 cells (setting [2]), 3.6 µM.

Take `CCCCCCCCCCCCCCCCCCn1cc(CC(N)(C(=O)OCC)C(=O)OCC)nn1` [Compound 7, Diethyl 2-amino-2-((1-octadecyl-1H-1,2,3-triazol-4-yl)methyl)malonate hydrochloride]: the IC50 in the experiment on DU-145 cells (setting [4]) is above 10 µM; in the experiment on PC-3 cells (setting [1]), below 10 µM; in the experiment on PC-3 cells (setting [2]), 7.9 µM.
